What was measured:
[1] = test system: HBV; experiment: Anti-HBV activity in HepG2 cells; type: cell-based; conditions: for Anti-HBV potency compared with DAPD prodrug 5: comparison in words
[2] = test system: HBV; conditions: in words; cited from earlier work
[3] = test system: HIV; conditions: in words; cited from earlier work

Substance: (2S)-Ethyl 2-(((((2R,4R)-4-(2-amino-6-tetradecanamido-9H-purin-9-yl)-1,3-dioxolan-2-yl)methoxy)(phenoxy)phosphoryl)amino)propanoate [Compound 10g]
- Anti-HBV potency compared with DAPD prodrug 5 [1]: in the same range as DAPD prodrug 5

Substance: (−)-β-D-(2R,4R)-1,3-dioxolane-2-amino-6-aminopropyl purine nucleoside phosphoramidate prodrug [Compound 4]
- Activity against HBV [2]: submicromolar
- Activity against HIV [3]: submicromolar

Substance: (2S)-ethyl 2-(((((2R,4R)-4-(2-amino-6-hydroxy-9H-purin-9-yl)-1,3-dioxolan-2-yl)methoxy)(phenoxy)phosphoryl)amino)propanoate [Compound 5]
- Factor of increase in potency against HBV compared with DAPD ([1]; ratio of EC50 values, DAPD vs prodrug): 40

Substance: (2S)-Ethyl 2-(((((2R,4R)-4-(2-amino-6-palmitamido-9H-purin-9-yl)-1,3-dioxolan-2-yl)methoxy)(phenoxy)phosphoryl)amino)propanoate [Compound 10h]
- Anti-HBV potency compared with DAPD prodrug 5 [1]: in the same range as DAPD prodrug 5

— paper PMC4312240 (Bioorganic & medicinal chemistry, 2014)
